The source of these data is patent US20240115742A1, “FLUORINATED FIBERS FOR MULTIMODAL 1H AND 19F MRI, ULTRASOUND, FLUORESCENCE DETECTION AND CONFORMATIONAL AND TEMPERATURE DETECTION BY 19F MRS” (New York University, priority 2022, published 2024).

Square brackets hold non-standard residues; d marks the D form. Ends that are not written are not given here. LTF = trifluoroleucine

Series [1] can be described thus: Curcumin binding by fluorescence spectroscopy. Conditions: 15 μM protein, 1% v/v DMSO. As for the experimental part:
Drug Binding. Protein variants were bound to curcumin (CCM) in increasing CCM:protein ratios at 1:1 to 10:1. Protein was diluted to a final concentration of 15 μM before CCM solubilized in DMSO was added to the protein sample at a final 1% v/v DMSO. Samples were incubated on a thermomixer for 30 min at 300 rpm in the dark at 4° C. Samples were then removed and 300 μL of each sample was added to a 96-well solid black plate. Protein variants were excited at 420 nm and emission was read at 520 nm using a BioTek Synergy H1 microplate reader at RT. The baseline spectra of CCM, at 15-150 μM in 50 mM PB pH 4.0 containing 1% v/v DMSO, was subtracted from the fluorescence intensities of the protein-CCM at corresponding concentrations. Resulting normalized relative fluorescence intensities were analyzed using Specific binding kinetics in GraphPad Prism (GraphPad Software).
Curcumin Binding. CCM was bound to Q2LTF. […] Samples were loaded onto a 96-well black plate and excited at 420 nm and emission was read at 520 nm using a BioTek Synergy H1 microplate reader at room temperature (RT). Normalized relative fluorescence intensities were calculated and analyzed in Graphpad Prism (GraphPad Software). Binding affinity was calculated using the specific binding kinetics equation.

Series [2] is described as follows: Linear regression model predictions. The note with it: from 181.7 nm fiber diameter. As for the experimental part: A linear model was previously established correlating the increase in thermostability upon binding CCM, and the loss of ordered structure as measured by ATR-FTIR. Based on this model, a 14.5% loss of structure is predicted, which translates to an error of just 0.4% from a measured structure loss of 14.1%, within the root mean squared error (RMSE) of the model, which is calculated here to be 0.9%. […] While CCM-binding imposes a negative impact on the ordered structure of the coiled-coil, a loss of secondary structure measured by ATR-FTIR has been associated with a positive interaction of CCM in the hydrophobic pore, which helps stabilize the protein and increase thermostability. Thus, the fluorination of Q2LTF results in a strengthened interaction with CCM.
Binding of CCM causes fiber thickening of Q2LTF (FIG. 34d, 44), consistent with recent analysis of supramolecular coiled-coil fibers. Fiber-thickening by CCM has been established for collagen activity as well as coiled-coil fibers and is explained by increased solvation of polar groups and burying of the hydrophobic residues leading to increased surface activity. […] While this relationship was assessed for non-fluorinated CCM fibers, the predicted fiber diameter is […] based on a 181.7 nm Q2LTF fiber diameter translating to an error of […], just outside our model's root mean squared error (RMSE) of […] (FIG. 45). […]

For the substance “Q2LTF: protein-engineered fluorinated coiled-coil fiber, Q2 with trifluoroleucine, SEQ ID NO: 20 (MRGSHHHHHHGSIEGRVKE[LTF][LTF]F[LTF]KKTAEQM[LTF]EE[LTF]KETNKA[LTF]HDVRH[LTF][LTF]ENQSK[LTF]; ends and bridges not checked) [Protein Q2LTF]”, in series [1], the Kd was 0.06 μM:μM [protein:CCM]. In series [2], the “predicted CCM-thickened fiber diameter” value is listed as 12.9 μm.
